Reference: patent publication US6489469B1, “Method for storing or transporting erythritol solution” (Nikken Chemicals Co., Ltd., priority 1999, dated 2002)

What was measured:
[1] = tested on: Saccharomyces cerevisiae ATCC 9763; test: Viable Count of Saccharomyces cerevisiae ATCC 9763 in Erythritol Solution; assay type: cell-based; conditions: for The Number of Viable Cell: 50° C.
Procedure: Erythritol solutions of respective concentrations in the range of from 30 to 60% were prepared. To these were inoculated Staphylococcus aureus IFO 13276, Bacillus subtilis IFO 3134, and Escherichia coli IFO 3972 as bacteria, Candida albicans IFO 1549 and Saccharomyces cerevisiae ATCC 9763 as yeasts, Aspergillus niger IFO 6342, Aspergillus flavus IFO 6343, and Penicillium funiculosum IFO 6345 as fungi, respectively, in a population (concentration) of 10,000 cells/mL or more. After the inoculation, the solutions were stored at 30, 37, 45, 50, or 60° C., respectively, for 56 days and the number of viable cell was determined daily. The determination of the number of viable cell was performed by a method of coating 0.1 mL of appropriately diluted sample cultivation on an agar plate and cultivating and counting the number of viable cell (the number of colony) that grew after the cultivation.

[2] = Long-term Stability of Erythritol Solution by High Temperature Storage; assay type: physicochemical; design: change in the degree of coloring / Degree of Coloring: scale not given here
Procedure: solutions having erythritol concentrations of 50%, 55%, 58% and 62%, respectively, were prepared and stored at 55° C., 60° C., 65° C. and 75° C. respectively, for 2 months and degree of coloring, pH, and purity were measured and the degree of deterioration was studied.

[3] = 75° C., short period of 10 days or less
[4] = Storage Temperature: 55° C., Erythritol Concentration: 50%, 0 days
[5] = Storage Temperature: 55° C., Erythritol Concentration: 50%, 10 days
[6] = Storage Temperature: 55° C., Erythritol Concentration: 50%, 30 days
[7] = Storage Temperature: 55° C., Erythritol Concentration: 50%, 60 days
[8] = Storage Temperature: 60° C., Erythritol Concentration: 55%, 0 days
[9] = Storage Temperature: 60° C., Erythritol Concentration: 55%, 10 days
[10] = Storage Temperature: 60° C., Erythritol Concentration: 55%, 30 days
[11] = Storage Temperature: 60° C., Erythritol Concentration: 55%, 60 days
[12] = Storage Temperature: 65° C., Erythritol Concentration: 58%, 0 days
[13] = Storage Temperature: 65° C., Erythritol Concentration: 58%, 10 days
[14] = Storage Temperature: 65° C., Erythritol Concentration: 58%, 30 days
[15] = Storage Temperature: 65° C., Erythritol Concentration: 58%, 60 days
[16] = Storage Temperature: 75° C., Erythritol Concentration: 62%, 0 days
[17] = Storage Temperature: 75° C., Erythritol Concentration: 62%, 10 days
[18] = Storage Temperature: 75° C., Erythritol Concentration: 62%, 30 days
[19] = Storage Temperature: 75° C., Erythritol Concentration: 62%, 60 days

- change in pH [2, 3]: ≤ 1
- change in purity [2, 3]: no change
- change in the degree of coloring [2, 3]: ≤ 0.01
- Degree of Coloring [2, 4]: 0.028
- Purity (%) [2, 4]: 99.9%
- pH [2, 4]: 5.7
- Degree of Coloring [2, 5]: 0.028
- Purity (%) [2, 5]: 99.9%
- pH [2, 5]: 5.6
- Degree of Coloring [2, 6]: 0.026
- Purity (%) [2, 6]: 100.0%
- pH [2, 6]: 5.4
- Degree of Coloring [2, 7]: 0.027
- Purity (%) [2, 7]: 100.0%
- pH [2, 7]: 5.1
- Degree of Coloring [2, 8]: 0.021
- Purity (%) [2, 8]: 99.9%
- pH [2, 8]: 5.7
- Degree of Coloring [2, 9]: 0.021
- Purity (%) [2, 9]: 99.9%
- pH [2, 9]: 5.4
- Degree of Coloring [2, 10]: 0.023
- Purity (%) [2, 10]: 99.9%
- pH [2, 10]: 5.5
- Degree of Coloring [2, 11]: 0.028
- Purity (%) [2, 11]: 99.9%
- pH [2, 11]: 5.0
- Degree of Coloring [2, 12]: 0.029
- Purity (%) [2, 12]: 100.0%
- pH [2, 12]: 5.7
- Degree of Coloring [2, 13]: 0.030
- Purity (%) [2, 13]: 99.9%
- pH [2, 13]: 5.5
- Degree of Coloring [2, 14]: 0.029
- Purity (%) [2, 14]: 100.0%
- pH [2, 14]: 5.2
- Degree of Coloring [2, 15]: 0.036
- Purity (%) [2, 15]: 99.9%
- pH [2, 15]: 4.7
- Degree of Coloring [2, 16]: 0.025
- Purity (%) [2, 16]: 99.9%
- pH [2, 16]: 5.7
- Degree of Coloring [2, 17]: 0.027
- Purity (%) [2, 17]: 99.9%
- pH [2, 17]: 5.2
- Degree of Coloring [2, 18]: 0.033
- Purity (%) [2, 18]: 99.9%
- pH [2, 18]: 4.8
- Degree of Coloring [2, 19]: 0.065
- Purity (%) [2, 19]: 99.9%
- pH [2, 19]: 3.9
Compound: OC[C@@H](O)[C@@H](O)CO [Erythritol Solution, erythritol]
- The Number of Viable Cell ([1]; 30% w/w, Day 7): 0 cells/mL
- The Number of Viable Cell ([1]; 30% w/w, Day 14): 0 cells/mL
- The Number of Viable Cell ([1]; 30% w/w, Day 28): 0 cells/mL
- The Number of Viable Cell ([1]; 30% w/w, Day 56): 0 cells/mL
- The Number of Viable Cell ([1]; 40% w/w, Day 0): ≥ 10000 cells/mL
- The Number of Viable Cell ([1]; 40% w/w, Day 3): 0 cells/mL
- The Number of Viable Cell ([1]; 40% w/w, Day 7): 0 cells/mL
- The Number of Viable Cell ([1]; 40% w/w, Day 14): 0 cells/mL
- The Number of Viable Cell ([1]; 40% w/w, Day 28): 0 cells/mL
- The Number of Viable Cell ([1]; 40% w/w, Day 56): 0 cells/mL
- The Number of Viable Cell ([1]; 50% w/w, Day 0): ≥ 10000 cells/mL
- The Number of Viable Cell ([1]; 50% w/w, Day 3): 0 cells/mL
- The Number of Viable Cell ([1]; 50% w/w, Day 7): 0 cells/mL
- The Number of Viable Cell ([1]; 50% w/w, Day 14): 0 cells/mL
- The Number of Viable Cell ([1]; 50% w/w, Day 28): 0 cells/mL
- The Number of Viable Cell ([1]; 50% w/w, Day 56): 0 cells/mL
- growth of the microbes ([1]; temperature of 50° C. or more): prevented from growing
- time after which microbes died ([1]; temperature of 50° C. or more): 3 days
- storage stability (purity, coloring) ([2]; storage at a temperature of 55 to 65° C.): without causing a decrease in purity or causing coloring
